Laboratory results published in PubChem BioAssay (NCI).
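Method: 48-hour compound exposure of cells in 96-well plates, five concentrations, linear interpolation of endpoints. GI50: concentration for 50% inhibition of growth. TGI denotes the concentration required for complete inhibition of growth.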

Assays:
Experiment in all cases: NCI anticancer screen, dose series, 48 h
ACHN renal = test system: ACHN renal
NCI/ADR-RES ovarian = test system: NCI/ADR-RES ovarian
SK-MEL-2 melanoma = test system: SK-MEL-2 melanoma
HOP-62 NSCLC = test system: HOP-62 NSCLC
HOP-92 NSCLC = test system: HOP-92 NSCLC
MOLT-4 leukemia = test system: MOLT-4 leukemia
NCI-H23 lung = test system: NCI-H23 lung
NCI-H460 lung = test system: NCI-H460 lung
IGROV1 ovarian = test system: IGROV1 ovarian
MCF7 breast = test system: MCF7 breast
UACC-62 melanoma = test system: UACC-62 melanoma
SNB-19 CNS = test system: SNB-19 CNS
UO-31 renal = test system: UO-31 renal
CCRF-CEM leukemia = test system: CCRF-CEM leukemia
MDA-MB-435 = test system: MDA-MB-435
LOX IMVI melanoma = test system: LOX IMVI melanoma
NCI-H522 lung = test system: NCI-H522 lung
CAKI-1 renal = test system: CAKI-1 renal
SF-539 CNS = test system: SF-539 CNS
MDA-MB-231 breast = test system: MDA-MB-231 breast
RXF 393 renal = test system: RXF 393 renal
TK-10 renal = test system: TK-10 renal
RPMI-8226 leukemia = test system: RPMI-8226 leukemia
786-0 renal = test system: 786-0 renal
MALME-3M melanoma = test system: MALME-3M melanoma
SW-620 colon = test system: SW-620 colon
OVCAR-5 ovarian = test system: OVCAR-5 ovarian
HL-60(TB) leukemia = test system: HL-60(TB) leukemia
U251 CNS = test system: U251 CNS
OVCAR-8 ovarian = test system: OVCAR-8 ovarian
COLO 205 colon = test system: COLO 205 colon
EKVX NSCLC = test system: EKVX NSCLC
SK-MEL-28 melanoma = test system: SK-MEL-28 melanoma
HS 578T breast = test system: HS 578T breast
OVCAR-3 ovarian = test system: OVCAR-3 ovarian
KM12 colon = test system: KM12 colon
UACC-257 melanoma = test system: UACC-257 melanoma
PC-3 prostate = test system: PC-3 prostate
OVCAR-4 ovarian = test system: OVCAR-4 ovarian
K-562 leukemia = test system: K-562 leukemia
SK-MEL-5 melanoma = test system: SK-MEL-5 melanoma
SN12C renal = test system: SN12C renal
NCI-H226 lung = test system: NCI-H226 lung
SF-295 CNS = test system: SF-295 CNS
SF-268 CNS = test system: SF-268 CNS
MDA-MB-468 breast = test system: MDA-MB-468 breast
SK-OV-3 ovarian = test system: SK-OV-3 ovarian
A549 NSCLC = test system: A549 NSCLC
HT29 colon = test system: HT29 colon
T-47D breast = test system: T-47D breast
DU-145 prostate = test system: DU-145 prostate
SR leukemia = test system: SR leukemia
HCT-116 colon = test system: HCT-116 colon
M14 melanoma = test system: M14 melanoma
BT-549 breast = test system: BT-549 breast
SNB-75 CNS = test system: SNB-75 CNS
HCC-2998 colon = test system: HCC-2998 colon
HCT-15 colon = test system: HCT-15 colon
A498 renal = test system: A498 renal

SMILES: Clc1cccc(N/N=C/c2c[nH]c3ccccc23)n1
- GI50 (ACHN renal): 10.5 µM
- TGI (ACHN renal): 33.6 µM
- GI50 (NCI/ADR-RES ovarian): 2.98 µM
- TGI (NCI/ADR-RES ovarian): 16.5 µM
- GI50 (SK-MEL-2 melanoma): 12.9 µM
- TGI (SK-MEL-2 melanoma): 25.9 µM
- GI50 (HOP-62 NSCLC): 10 µM
- TGI (HOP-62 NSCLC): 22.3 µM
- GI50 (HOP-92 NSCLC): 5.32 µM
- TGI (HOP-92 NSCLC): 20.7 µM
- GI50 (MOLT-4 leukemia): 1.55 µM
- TGI (MOLT-4 leukemia): 21.9 µM
- GI50 (NCI-H23 lung): 12.5 µM
- TGI (NCI-H23 lung): 26.3 µM
- GI50 (NCI-H460 lung): 11.5 µM
- TGI (NCI-H460 lung): 28.8 µM
- GI50 (IGROV1 ovarian): 1.37 µM
- TGI (IGROV1 ovarian): 6.92 µM
- GI50 (MCF7 breast): 2.67 µM
- TGI (MCF7 breast): 16.4 µM
- GI50 (UACC-62 melanoma): 10.3 µM
- TGI (UACC-62 melanoma): 22 µM
- GI50 (SNB-19 CNS): 12.7 µM
- TGI (SNB-19 CNS): 30.8 µM
- GI50 (UO-31 renal): 1.21 µM
- TGI (UO-31 renal): 14.1 µM
- GI50 (CCRF-CEM leukemia): 0.307 µM
- TGI (CCRF-CEM leukemia): 19.4 µM
- GI50 (MDA-MB-435): 2.46 µM
- TGI (MDA-MB-435): 12 µM
- GI50 (LOX IMVI melanoma): 3.32 µM
- TGI (LOX IMVI melanoma): 17 µM
- GI50 (NCI-H522 lung): 1.03 µM
- TGI (NCI-H522 lung): 12.4 µM
- GI50 (CAKI-1 renal): 2.23 µM
- TGI (CAKI-1 renal): 19.1 µM
- GI50 (SF-539 CNS): 1.47 µM
- TGI (SF-539 CNS): 11.9 µM
- GI50 (MDA-MB-231 breast): 1.37 µM
- TGI (MDA-MB-231 breast): 9.57 µM
- GI50 (RXF 393 renal): 2.84 µM
- TGI (RXF 393 renal): 18.1 µM
- GI50 (TK-10 renal): 19.5 µM
- TGI (TK-10 renal): 42.3 µM
- GI50 (RPMI-8226 leukemia): 0.83 µM
- TGI (RPMI-8226 leukemia): 14.5 µM
- GI50 (786-0 renal): 11.1 µM
- TGI (786-0 renal): 24.2 µM
- GI50 (MALME-3M melanoma): 7.33 µM
- TGI (MALME-3M melanoma): 20.8 µM
- GI50 (SW-620 colon): 13.3 µM
- TGI (SW-620 colon): 28 µM
- GI50 (OVCAR-5 ovarian): 11 µM
- TGI (OVCAR-5 ovarian): 23.7 µM
- GI50 (HL-60(TB) leukemia): 1.28 µM
- TGI (HL-60(TB) leukemia): 13.9 µM
- GI50 (U251 CNS): 10.7 µM
- TGI (U251 CNS): 25.8 µM
- GI50 (OVCAR-8 ovarian): 8.12 µM
- TGI (OVCAR-8 ovarian): 21 µM
- GI50 (COLO 205 colon): 13.8 µM
- TGI (COLO 205 colon): 28.8 µM
- GI50 (EKVX NSCLC): 1.97 µM
- TGI (EKVX NSCLC): 16.8 µM
- GI50 (SK-MEL-28 melanoma): 14.5 µM
- TGI (SK-MEL-28 melanoma): 27.6 µM
- GI50 (HS 578T breast): 4.17 µM
- TGI (HS 578T breast): 27.8 µM
- GI50 (OVCAR-3 ovarian): 3.85 µM
- TGI (OVCAR-3 ovarian): 19.3 µM
- GI50 (KM12 colon): 9.78 µM
- TGI (KM12 colon): 26.9 µM
- GI50 (UACC-257 melanoma): 11.6 µM
- TGI (UACC-257 melanoma): 24 µM
- GI50 (PC-3 prostate): 2.98 µM
- TGI (PC-3 prostate): 26.6 µM
- GI50 (OVCAR-4 ovarian): 10.5 µM
- TGI (OVCAR-4 ovarian): 29 µM
- GI50 (K-562 leukemia): 1.94 µM
- TGI (K-562 leukemia): 41 µM
- GI50 (SK-MEL-5 melanoma): 8.61 µM
- TGI (SK-MEL-5 melanoma): 21 µM
- GI50 (SN12C renal): 2.28 µM
- TGI (SN12C renal): 11.7 µM
- GI50 (NCI-H226 lung): 1.65 µM
- TGI (NCI-H226 lung): 17.2 µM
- GI50 (SF-295 CNS): 11.4 µM
- TGI (SF-295 CNS): 23.5 µM
- GI50 (SF-268 CNS): 2.99 µM
- TGI (SF-268 CNS): 25.9 µM
- GI50 (MDA-MB-468 breast): 1.89 µM
- TGI (MDA-MB-468 breast): 5.01 µM
- GI50 (SK-OV-3 ovarian): 2.39 µM
- TGI (SK-OV-3 ovarian): 16.8 µM
- GI50 (A549 NSCLC): 13.2 µM
- TGI (A549 NSCLC): 38.2 µM
- GI50 (HT29 colon): 15 µM
- TGI (HT29 colon): 31.8 µM
- GI50 (T-47D breast): 4.04 µM
- TGI (T-47D breast): 19 µM
- GI50 (DU-145 prostate): 13 µM
- TGI (DU-145 prostate): 26 µM
- GI50 (SR leukemia): 2.93 µM
- TGI (SR leukemia): 19.3 µM
- GI50 (HCT-116 colon): 12.1 µM
- TGI (HCT-116 colon): 25.2 µM
- GI50 (M14 melanoma): 11.9 µM
- TGI (M14 melanoma): 25.4 µM
- GI50 (BT-549 breast): 0.245 µM
- TGI (BT-549 breast): 11 µM
- GI50 (SNB-75 CNS): 0.141 µM
- TGI (SNB-75 CNS): 5 µM
- GI50 (HCC-2998 colon): 12 µM
- TGI (HCC-2998 colon): 24.6 µM
- GI50 (HCT-15 colon): 8.1 µM
- TGI (HCT-15 colon): 21.5 µM
- GI50 (A498 renal): 18.7 µM
- TGI (A498 renal): 34 µM
